Data from patent US6833137B1, “Protection against termites” (Bayer CropScience S.A., priority 1996, dated 2004).

Test system: termites
Experiment: termite perforation test on gypsum block treated with compound A, separating two chambers
Assay type: in vivo
Settings: after 21 days; gypsum block sprayed on both faces, 0.05 g/m^2 of compound A; 160 termites in upper chamber
From the text: A gypsum block is used which has a surface area of 30 cm^2 and a thickness of 0.8 cm and is covered on both its face with cardboard having a relative density of […] and a thickness of 0.2 mm.
A solution of compound A in propylene glycol is sprayed over both faces of this block in an amount such that the gypsum block contains 0.05 g/m^2 of compound A.
Two vertical cylindrical chambers with a diameter of 5 cm are separated using the gypsum block thus treated. The upper chamber comprises 160 termites placed in damp compost. The lower chamber comprises a piece of wood placed in moistened sand.
After 21 days, a mortality rate equal to 100% is observed.

SMILES: N#Cc1nn(-c2c(Cl)cc(C(F)(F)F)cc2Cl)c(N)c1[S+]([O-])C(F)(F)F (stereo not shown) [compound A, 1-[2,6-Cl2-4-CF3phenyl]-3-CN-4-[SO—CF3]-5-NH2pyrazole]
- mortality rate: 100%
